The target of the experiment is αvβ6 integrin (Homo sapiens, UniProt P06756+P18564). The experiment can be described thus: IC50 binding activity (Examples 3 and 12). The conditions noted are these: Example 12, Table 17; azide-functionalized structures (2b, 6.1b, 7b, 23b) examined. From the text:
As reported in the following Table 1, IC50 binding data was obtained for the αvβ6 integrin ligands of Structures 1 and 2:
Azide-functionalized structures (i.e., Structures 1b and 2b) were examined for IC50 under conditions typically used and known in the art.
As reported in the following Table 17, additional IC50 binding data was obtained for the αvβ6 integrin ligands of Structures 2, 6.1, 7, and 23 used in certain Examples herein: […]

Consider one molecule from patent US11597701B2, “Integrin ligands and uses thereof” (Arrowhead Pharmaceuticals, Inc., priority 2017, dated 2023).

Chain of αvβ6 integrin (P06756 31-1048): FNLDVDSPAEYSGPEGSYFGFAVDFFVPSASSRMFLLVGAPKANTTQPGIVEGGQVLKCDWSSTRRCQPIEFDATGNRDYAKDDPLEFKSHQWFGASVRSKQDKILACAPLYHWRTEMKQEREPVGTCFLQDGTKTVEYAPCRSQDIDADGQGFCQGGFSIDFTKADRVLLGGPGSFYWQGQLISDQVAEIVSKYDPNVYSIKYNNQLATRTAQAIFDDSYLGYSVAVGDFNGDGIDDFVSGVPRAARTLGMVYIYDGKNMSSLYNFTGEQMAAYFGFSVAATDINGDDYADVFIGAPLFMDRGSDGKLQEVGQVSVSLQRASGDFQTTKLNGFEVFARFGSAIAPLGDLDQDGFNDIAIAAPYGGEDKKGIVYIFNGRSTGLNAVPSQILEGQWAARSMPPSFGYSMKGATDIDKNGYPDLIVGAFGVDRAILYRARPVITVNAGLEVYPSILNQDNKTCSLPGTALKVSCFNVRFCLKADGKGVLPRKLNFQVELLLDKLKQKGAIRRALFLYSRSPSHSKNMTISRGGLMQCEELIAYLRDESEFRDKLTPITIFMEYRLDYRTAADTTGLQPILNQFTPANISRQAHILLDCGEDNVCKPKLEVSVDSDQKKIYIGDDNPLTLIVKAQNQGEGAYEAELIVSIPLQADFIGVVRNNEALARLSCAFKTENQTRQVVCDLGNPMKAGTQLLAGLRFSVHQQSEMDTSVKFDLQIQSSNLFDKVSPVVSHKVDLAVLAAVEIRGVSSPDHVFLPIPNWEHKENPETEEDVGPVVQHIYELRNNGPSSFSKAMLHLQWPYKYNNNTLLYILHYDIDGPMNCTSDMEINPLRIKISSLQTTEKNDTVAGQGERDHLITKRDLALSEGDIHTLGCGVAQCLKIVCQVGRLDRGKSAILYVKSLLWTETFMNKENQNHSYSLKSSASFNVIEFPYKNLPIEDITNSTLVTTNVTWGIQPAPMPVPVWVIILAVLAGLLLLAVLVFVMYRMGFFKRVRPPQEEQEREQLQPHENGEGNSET
Chain of αvβ6 integrin (P18564 22-788): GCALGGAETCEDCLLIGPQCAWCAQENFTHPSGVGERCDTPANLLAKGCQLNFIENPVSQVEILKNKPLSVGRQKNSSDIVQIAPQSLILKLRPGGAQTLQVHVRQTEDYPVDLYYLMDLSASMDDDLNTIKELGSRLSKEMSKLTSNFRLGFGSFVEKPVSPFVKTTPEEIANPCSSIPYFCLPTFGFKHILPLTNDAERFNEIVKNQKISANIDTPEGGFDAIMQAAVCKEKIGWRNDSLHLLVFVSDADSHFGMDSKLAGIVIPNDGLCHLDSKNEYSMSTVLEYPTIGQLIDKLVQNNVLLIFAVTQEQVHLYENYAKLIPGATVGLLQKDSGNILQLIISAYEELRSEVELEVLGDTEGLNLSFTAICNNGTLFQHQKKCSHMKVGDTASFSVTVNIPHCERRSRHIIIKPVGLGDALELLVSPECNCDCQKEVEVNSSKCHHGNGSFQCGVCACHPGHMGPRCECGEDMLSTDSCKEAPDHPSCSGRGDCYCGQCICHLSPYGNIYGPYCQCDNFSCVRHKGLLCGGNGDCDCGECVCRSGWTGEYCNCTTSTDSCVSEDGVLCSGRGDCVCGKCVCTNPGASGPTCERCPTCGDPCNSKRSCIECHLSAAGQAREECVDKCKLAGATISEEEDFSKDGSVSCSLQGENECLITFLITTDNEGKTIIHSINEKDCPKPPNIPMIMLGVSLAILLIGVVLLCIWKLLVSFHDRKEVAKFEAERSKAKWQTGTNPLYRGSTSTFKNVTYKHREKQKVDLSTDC

The IC50 is the concentration needed to halve the response being measured. Read a low IC50 as greater potency. The molecule `Cc1ccnc(NCCCC(=O)NCC(=O)N[C@@H](CC(=O)O)c2ccc(-c3ccc(OCCOCCOCCOCCOCCN=[N+]=[N-])c4ccccc34)cc2)c1` [Structure 6.1] came in with an IC50 of 1.6 nM.
